From patent US20050222182A1, “Stabilized pharmaceutical compositions of halofuginone and other quinazolinone derivatives” (priority 2002, published 2005)
Read-outs that look alike come from different tables or passages of the source.

Tests used:
[1] = type: physicochemical
Text: A commercially useful solution formulation was developed based on halofuginone dissolved in lactate buffer and the stability data shown in FIGS. 2 and 3. The stability of halofuginone in sodium lactate buffer (4% pH 4) was unaffected by the presence of saline in the final solution.

[2] = type: physicochemical; settings: for Ea (degradation activation energy): 1 mg/ml
Method: Halofuginone HBr powder was dissolved in acetonitrile and the solution was mixed with 4 volumes ([…]) of borate buffer to yield a […] solution. Buffer solutions at pH 5.5, 6.5, and 7.5 were prepared by mixing various amounts of sodium borate solution (12 g in 240 ml DDW) to boric acid solution (12 g in 240 ml DDW). The solutions were filtered through a 0.2 micron filter into a tightly closed glass vial coated with aluminum foil to protect from light. The solutions (1.25 ml, 1 mg/ml in acetonitrile: buffer 1:4) were kept in temperature controlled incubators at 4, 25, 37 and 60° C. At time of analysis, about 50 μl of the solution was taken and immediately injected to the HPLC.
Halofuginone was determined by HPLC using the following equipment and conditions: • Instrument: HP 1050 with HPCHEM software • Column: C8, Lichospher 60 (5, μm) LichoCART 125-4, Cat. No. 1.50213 (Merck) (similar to Hypersil BDS C8 used by AminoLab) with precolumn Lichospher 100 RP-8, 5 μm, 4×4 mm, Cat. No. 1.50961 (Merck) • Column temp: ambient • Flow rate: isocratic, 1 ml/min Eluant: Acetonitrile: 0.1 M sodium citrate buffer pH3.0 at a 30:70 v/v • Detector: UV 254 nm • Sample volume: 20 μl • Run time: 15 min., halofuginone Rt=8.8 min.; degradation product Rt=11.7 Results:
Analysis: Halofuginone was analyzed by HPLC with UV detector. The retention times for halofuginone and its main degradation product (cis isomer) are 8.8 min and 11.7 min, respectively.
Stability: Halofuginone concentrations were followed for 24 hours. […] The decrease in halofuginone concentrations for the solutions kept at 25° C. and above is shown in FIG. 1 and the rate constants are summarized in Table 1. The degradation activation energies at different pH solutions were estimated from the plot of ln(Kobs) vs. 1/T and are summarized in Table 1. The activation energies were calculated from the slopes of ln(Kobs) vs. 1/T. The activation energies are in the range of 6.57-13.13 Kcal.

[3] = physchem; type: physicochemical; settings: aqueous buffer, thermodynamic from solid
Method: The solubility of halofuginone in several solvents was first studied. Powder of halofuginone was dissolved in the different solvents, starting from over saturation and followed by dilutions.

Row | Structure (SMILES) | Stability in lactate buffer pH 4.0 compared to distilled water [1] | Ea (degradation activation energy) ([2]; pH 5.5) | Ea (degradation activation energy) ([2]; pH 6.5) | Ea (degradation activation energy) ([2]; pH 7.5) | Slope [ln(Kobs)/1/T] ([2]; pH 5.5) | Activation energies (range over pH solutions) ([2]; pH 5.5-7.5) | Slope [ln(Kobs)/1/T] ([2]; pH 6.5) | Slope [ln(Kobs)/1/T] ([2]; pH 7.5) | solubility [3]
1 | O=C(C[C@@H]1NCCC[C@H]1O)Cn1cnc2cc(Br)c(Cl)cc2c1=O (racemic) [halofuginone, 7-bromo-6-chloro-3-[3-(3-hydroxy-2-piperidinyl)-2-oxopropyl]-4(3H)-quinazolinone] | higher stability | 13.13 kcal | 8.38 kcal | 6.57 kcal | 26,134 | 6.57-13.13 Kcal | 16,685 | 13,412 | 
2 | O=C(CC1NCCCC1O)Cn1cnc2cc(Br)c(Cl)cc2c1=O (stereo not drawn) [halofuginone-Hbr] |  |  |  |  |  |  |  |  | ≥ 5000 µg/mL
